Experimental data as given in US6703388B2, “Nitrogen-containing tricyclic compounds and drugs containing the same” (Eisai Co., Ltd., priority 1996, dated 2004).
Where two headings read alike, the source gives them in different places.

Key:
[1] = system: human basophils; experiment: Inhibition of mediator (histamine, peptide leukotriene) liberation from human basophils stimulated with mite antigen; assay type: cell-based; conditions: enzyme immunoassay
Method: 6 ml of 6% dextran (for separating leukocytes, having a high molecular weight) was added to 20 ml of heparinized blood. After stirring well, the resulting mixture was allowed to stand at 37° C. for 30 min and thus erythrocytes were precipitated. The upper layer was taken up and phosphate buffered saline (D-PBS) was added thereto followed by centrifugation at 185 g for 8 minutes to give a crude leukocyte fraction. These cells were subjected to hypotonic hematolysis and then suspended in D-PBS(+) containing 0.1%-BSA. The resulting suspension was used in the subsequent experiment as the leukocyte fraction containing basophils. 0.4 ml of this cell suspension was preliminarily heated to 37° C. for 5 min and then 0.05 ml of a specimen solution was added thereto followed by a pretreatment at 37° C. for 15 min. Next, 0.05 ml of a mite antigen solution was added thereto to induce an antigen-antibody reaction. After 10 min, the reaction was ceased by ice-cooling. Then the reaction mixture was centrifuged at 185 g for 10 min and histamine and peptide leukotrienes in the resulting supernatant were determined by using enzyme immunoassay kits. From the results of the assay, the activities of the acridone derivatives of inhibiting the liberation of histamine and peptide leukotriene were determined.

[2] = system: RBL-2H3 cells; experiment: Inhibition of serotonin liberation from IgE-sensitized RBL-2H3 cells after antigen stimulation; assay type: cell-based, rat; conditions: [3H]-serotonin release, IgE-sensitized RBL-2H3 cells, antigen stimulation, read-out: IC50 (μM) in serotonin liberation from RBL-2H3 cells
From the text: IgE-sensitized RBL-2H3 cells (i.e., a cell line originating in rat cells) release and produce not only histamine and serotonin but also cytokines such as TNF α and prostaglandins which are inflammatory mediators after stimulation with IgE sepecific antibody. In this experimental system, inhibitory effects on various mediators release were examined by using serotonin as an indication.
The cells were beforehand labeled with [^3H]-labeled serotonin and, at the same time, sensitized with the IgE antibody. After incubating with the compounds of the present invention, the cells were stimulated with the specific antigen. Then the inhibitory activity of each compound was calculated from the amount of the [^3H]-labeled serotonin thus liberated into the medium and the amount of [^3H]-labeled serotonin liberated when no compound of the present invention was added.

[3] = histamine, read-out: IC50 (μM) in mediator liberation from human basophils: histamine
[4] = peptide leukotriene, read-out: IC50 (μM) in mediator liberation from human basophils: leukotriene

Cc1ccc2c(c1C)N(CCCNCc1ccccc1O)c1ccccc1[S+]2[O-] (stereo not shown) [Example 23]
IC50 [1, 3]: 10 to 30 µM | IC50 [1, 4]: 10 to 30 µM | IC50 ([2]; Rattus norvegicus): 2 µM

Cc1ccc2c(c1C)N(CCCNCc1cccc(O)c1)c1ccccc1[S+]2[O-] (stereo not shown) [Example 24]
IC50 [1, 3]: 10 to 30 µM | IC50 [1, 4]: 10 to 30 µM | IC50 ([2]; Rattus norvegicus): 3 µM

Cc1ccc2c(c1C)N(CCCNCc1ccc(O)cc1)c1ccccc1[S+]2[O-] (stereo not shown) [Example 25]
IC50 [1, 3]: 30 µM | IC50 [1, 4]: 10 to 30 µM | IC50 ([2]; Rattus norvegicus): 3 µM

Cc1ccc2c(c1C)N(CCCNCc1cccc(C)c1O)c1ccccc1[S+]2[O-] (stereo not shown) [Example 26]
IC50 [1, 3]: < 10 µM | IC50 [1, 4]: < 10 µM | IC50 ([2]; Rattus norvegicus): 2 µM

COc1cccc(CNCCCN2c3ccccc3[S+]([O-])c3ccc(C)c(C)c32)c1O (stereo not shown) [Example 27]
IC50 [1, 3]: 30 to 100 µM | IC50 [1, 4]: 10 to 30 µM | IC50 ([2]; Rattus norvegicus): 3 µM

Cc1ccc2c(c1C)N(CCCNCc1cccc(OC(C)C)c1O)c1ccccc1[S+]2[O-] (stereo not shown) [Example 28]
IC50 [1, 3]: 10 to 30 µM | IC50 [1, 4]: 3 µM | IC50 ([2]; Rattus norvegicus): 0.8 µM

Cc1ccc2c(c1C)N(CCCNCc1cccc(Cl)c1O)c1ccccc1[S+]2[O-] (stereo not shown) [Example 29]
IC50 [1, 3]: 10 to 30 µM | IC50 [1, 4]: 3 to 10 µM | IC50 ([2]; Rattus norvegicus): 0.8 µM

Cc1ccc2c(c1C)N(CCCNCc1cccc(Br)c1O)c1ccccc1[S+]2[O-] (stereo not shown) [Example 30]
IC50 [1, 3]: 3 to 10 µM | IC50 [1, 4]: < 3 µM | IC50 ([2]; Rattus norvegicus): 2 µM

Cc1ccc2c(c1C)N(CCCNCc1ccc(O)c(C(=O)O)c1)c1ccccc1[S+]2[O-] (stereo not shown) [Example 32]
IC50 [1, 3]: 30 to 100 µM | IC50 [1, 4]: 10 to 30 µM | IC50 ([2]; Rattus norvegicus): 0.5 µM

Cc1ccc2c(c1C)N(CCCNCc1cc(O)ccc1O)c1ccccc1[S+]2[O-] (stereo not shown) [Example 33]
IC50 [1, 3]: 10 to 30 µM | IC50 [1, 4]: 10 µM | IC50 ([2]; Rattus norvegicus): 1 µM

Cc1ccc2c(c1C)N(CCCNCc1cc(Cl)cc(Cl)c1O)c1ccccc1[S+]2[O-] (stereo not shown) [Example 34]
IC50 [1, 3]: 3 to 10 µM | IC50 [1, 4]: 3 µM | IC50 ([2]; Rattus norvegicus): 2 µM

COCc1cccc(CNCCCN2c3ccccc3[S+]([O-])c3ccc(C)c(C)c32)c1O (stereo not shown) [Example 35]
IC50 [1, 3]: 3 µM | IC50 [1, 4]: 3 to 10 µM | IC50 ([2]; Rattus norvegicus): 1 µM

Cc1ccc2c(c1C)N(CCCNCc1c(O)cccc1O)c1ccccc1[S+]2[O-] (stereo not shown) [Example 36]
IC50 [1, 3]: 3 to 10 µM | IC50 [1, 4]: 3 to 10 µM | IC50 ([2]; Rattus norvegicus): 1 µM

Cc1ccc2c(c1C)N(CCCNCc1c(O)ccc(C)c1O)c1ccccc1[S+]2[O-] (stereo not shown) [Example 37]
IC50 [1, 3]: 10 to 30 µM | IC50 [1, 4]: 3 to 10 µM | IC50 ([2]; Rattus norvegicus): 2 µM

COc1cc(C)c(O)c(CNCCCN2c3ccccc3[S+]([O-])c3ccc(C)c(C)c32)c1O (stereo not shown) [Example 39]
IC50 [1, 3]: 10 to 30 µM | IC50 [1, 4]: 10 to 30 µM | IC50 ([2]; Rattus norvegicus): 2 µM

Cc1ccc2c(c1C)N(CCCNCc1cccc(F)c1O)c1ccccc1[S+]2[O-] (stereo not shown) [Example 42]
IC50 [1, 3]: 3 to 10 µM | IC50 [1, 4]: < 3 µM | IC50 ([2]; Rattus norvegicus): 2 µM

COCOc1ccccc1CNCCCN1c2ccccc2[S+]([O-])c2ccc(C)c(C)c21 (stereo not shown) [Example 44]
IC50 [1, 3]: 10 to 30 µM | IC50 [1, 4]: 10 µM | IC50 ([2]; Rattus norvegicus): 1 µM

COc1cccc(OC)c1CNCCCN1c2ccccc2[S+]([O-])c2ccc(C)c(C)c21 (stereo not shown) [Example 45]
IC50 [1, 3]: 3 to 10 µM | IC50 [1, 4]: 3 µM | IC50 ([2]; Rattus norvegicus): 1 µM

Cc1ccc2c(c1C)N(CCCNCc1ccccc1OCCO)c1ccccc1[S+]2[O-] (stereo not shown) [Example 46]
IC50 [1, 3]: 10 to 30 µM | IC50 [1, 4]: 10 to 30 µM | IC50 ([2]; Rattus norvegicus): 0.5 µM

COCOc1c(CNCCCN2c3ccccc3[S+]([O-])c3ccc(C)c(C)c32)cccc1OC(C)C (stereo not shown) [Example 47]
IC50 [1, 3]: 3 to 10 µM | IC50 [1, 4]: 3 µM | IC50 ([2]; Rattus norvegicus): 0.5 µM

COCOc1c(Cl)cccc1CNCCCN1c2ccccc2[S+]([O-])c2ccc(C)c(C)c21 (stereo not shown) [Example 48]
IC50 [1, 3]: 3 to 10 µM | IC50 [1, 4]: 3 µM | IC50 ([2]; Rattus norvegicus): 0.3 µM

Cc1ccc2c(c1C)N(CCCNCc1cccc(N(C)C)c1)c1ccccc1[S+]2[O-] (stereo not shown) [Example 49]
IC50 [1, 3]: 10 µM | IC50 [1, 4]: 3 to 10 µM | IC50 ([2]; Rattus norvegicus): 2 µM

Cc1ccc2c(c1C)N(CCCNCc1ccccc1N(C)C)c1ccccc1[S+]2[O-] (stereo not shown) [Example 50]
IC50 [1, 3]: 30 µM | IC50 [1, 4]: 10 to 30 µM | IC50 ([2]; Rattus norvegicus): 2 µM

Cc1ccc2c(c1C)N(CCCNCc1ccccc1N)c1ccccc1[S+]2[O-] (stereo not shown) [Example 51]
IC50 [1, 3]: 10 to 30 µM | IC50 [1, 4]: 10 to 30 µM | IC50 ([2]; Rattus norvegicus): 2 µM

Cc1ccc2c(c1C)N(CCCNCc1ccc3c(c1)OCCO3)c1ccccc1[S+]2[O-] (stereo not shown) [Example 53]
IC50 [1, 3]: 30 to 100 µM | IC50 [1, 4]: 10 to 30 µM | IC50 ([2]; Rattus norvegicus): 0.8 µM

Cc1ccc2c(c1C)N(CCCNCc1cccc3c1OCO3)c1ccccc1[S+]2[O-] (stereo not shown) [Example 54]
IC50 [1, 3]: 10 µM | IC50 [1, 4]: 3 to 10 µM | IC50 ([2]; Rattus norvegicus): 1 µM

Cc1ccc2c(c1C)N(CCCNCc1ccc(C#N)s1)c1ccccc1[S+]2[O-] (stereo not shown) [Example 58]
IC50 [1, 3]: 10 to 30 µM | IC50 [1, 4]: 10 to 30 µM | IC50 ([2]; Rattus norvegicus): 2 µM

Cc1ccc2c(c1C)N(CCCNCc1ccco1)c1ccccc1[S+]2[O-] (stereo not shown) [Example 62]
IC50 [1, 3]: 10 µM | IC50 [1, 4]: 3 µM | IC50 ([2]; Rattus norvegicus): 3 µM

COc1ccc(CNCCCN2c3ccccc3[S+]([O-])c3ccc(C)c(C)c32)o1 (stereo not shown) [Example 64]
IC50 [1, 3]: 3 to 10 µM | IC50 [1, 4]: 3 µM | IC50 ([2]; Rattus norvegicus): 3 µM

CO/N=c1\c2ccccc2n(CCCN)c2c(C)c(C)ccc12 [Example 208, (E,Z)-3,4-Dimethyl-10-(3-aminopropyl)-9-acridoneoxime-O-methyl Ether]
IC50 [2]: 3 µM

Cc1ccc2c(=NO)c3ccccc3n(CCCN)c2c1C [Example 209]
IC50 ([2]; Rattus norvegicus): 15 µM

CCCON=c1c2ccccc2n(CCCN)c2c(C)c(C)ccc12 [Example 211]
IC50 ([2]; Rattus norvegicus): 10 µM

Cc1ccc2c(=NOCCc3ccccn3)c3ccccc3n(CCCN)c2c1C [Example 212]
IC50 ([2]; Rattus norvegicus): 6 µM

Cc1ccc2c(=NOCC(=O)O)c3ccccc3n(CCCN)c2c1C [Example 215]
IC50 ([2]; Rattus norvegicus): 3 µM

Cc1ccc2c(=NOCCC(=O)O)c3ccccc3n(CCCN)c2c1C [Example 216]
IC50 ([2]; Rattus norvegicus): 3 µM

Cc1ccc2c(=NOC(C)C(=O)O)c3ccccc3n(CCCN)c2c1C (stereo not shown) [Example 217]
IC50 ([2]; Rattus norvegicus): 2 µM

Cc1ccc2c(=NOCc3ccccn3)c3ccccc3n(CCCN)c2c1C [Example 220]
IC50 ([2]; Rattus norvegicus): 6 µM

Cc1ccc2c(=NOCCCC(=O)N(C)C)c3ccccc3n(CCCN)c2c1C [Example 222]
IC50 ([2]; Rattus norvegicus): 10 µM

Cc1ccc2c(=NOC(C)C)c3ccccc3n(CCCN)c2c1C [Example 223]
IC50 ([2]; Rattus norvegicus): 10 µM

Cc1ccc2c(=NO)c3ccccc3n(CCCNCc3ccccc3)c2c1C [Example 230]
IC50 ([2]; Rattus norvegicus): 6 µM

CCCON=c1c2ccccc2n(CCCNCc2ccccc2)c2c(C)c(C)ccc12 [Example 232]
IC50 ([2]; Rattus norvegicus): 10 µM

Cc1ccc2c(=NOCC(=O)O)c3ccccc3n(CCCNCc3ccccc3)c2c1C [Example 234]
IC50 ([2]; Rattus norvegicus): < 3 µM

CCC(ON=c1c2ccccc2n(CCCNCc2ccccc2)c2c(C)c(C)ccc12)C(=O)O (stereo not shown) [Example 237]
IC50 ([2]; Rattus norvegicus): 10 µM

Cc1ccc2c(=NOCc3ccccn3)c3ccccc3n(CCCNCc3ccccc3)c2c1C [Example 240]
IC50 ([2]; Rattus norvegicus): 5 µM

Cc1ccc2c(=NOCCc3ccccn3)c3ccccc3n(CCCNCc3ccccc3)c2c1C [Example 241]
IC50 ([2]; Rattus norvegicus): 4 µM

Cc1ccc2c(=NOCCCC(=O)O)c3ccccc3n(CCCNCc3ccccc3)c2c1C [Example 242]
IC50 ([2]; Rattus norvegicus): 6 µM

Cc1ccc2c(=NOC(C)C)c3ccccc3n(CCCNCc3ccccc3)c2c1C [Example 243]
IC50 ([2]; Rattus norvegicus): 6 µM

Cc1ccc2c(=NOCCC(=O)N(C)C)c3ccccc3n(CCCNCc3ccccc3)c2c1C [Example 244]
IC50 ([2]; Rattus norvegicus): 3 µM

Cc1ccc2c(=NOCCC(=O)O)c3ccccc3n(CCCNCc3ccccc3O)c2c1C [Example 247]
IC50 ([2]; Rattus norvegicus): 10 µM

Cc1ccc2c(=NOCC(C)(C)C(=O)O)c3ccccc3n(CCCNCc3ccccc3)c2c1C [Example 248]
IC50 ([2]; Rattus norvegicus): 10 µM

Cc1ccccc1CNCCCn1c2ccccc2c(=NOCCC(=O)O)c2ccc(C)c(C)c21 [Example 249]
IC50 ([2]; Rattus norvegicus): 10 µM

Cc1ccc2c(=NOCCC(N)=O)c3ccccc3n(CCCNCc3ccccc3)c2c1C [Example 251]
IC50 ([2]; Rattus norvegicus): 5 µM

Cc1ccc2c(=NOC(C)C#N)c3ccccc3n(CCCNCc3ccccc3)c2c1C (stereo not shown) [Example 253]
IC50 ([2]; Rattus norvegicus): 10 µM

Cc1ccc2c(=NOCCC(=O)O)c3ccccc3n(CCCN(C)Cc3ccccc3)c2c1C [Example 254]
IC50 ([2]; Rattus norvegicus): 12 µM

CCON=c1c2ccccc2n(CCCNC(C)c2ccccc2)c2c(C)c(C)ccc12 (stereo not shown) [Example 255]
IC50 ([2]; Rattus norvegicus): 8 µM

Cc1ccc2c(c1C)N(CCCN)c1ccccc1N(C)C2=O [Example 257]
IC50 ([2]; Rattus norvegicus): 12 µM

Cc1ccc2c(c1C)N(CCCN)c1ccccc1C(=O)N2C [Example 258]
IC50 ([2]; Rattus norvegicus): 6 µM

Cc1ccc2c(c1C)N(CCCNCc1ccccc1)c1ccccc1N(C)C2=O [Example 259]
IC50 ([2]; Rattus norvegicus): 4 µM

Cc1ccc2c(c1C)N(CCCNCc1ccccc1)c1ccccc1C(=O)N2C [Example 260]
IC50 ([2]; Rattus norvegicus): 6 µM

COC(=O)Cc1cccc2c1[S+]([O-])c1ccc(C)c(C)c1N2CCCNCc1ccccc1 (stereo not shown) [Example 261]
IC50 ([2]; Rattus norvegicus): 10 µM
